Measured values published in patent publication US20150225404A1, “PYRIDINE DERIVATIVE AND MEDICINE” (NIPPON SHINYAKU CO., LTD., priority 2012, published 2015).
Where a name gives a salt, the structure may show the parent alone.

Biological target: T1, human mGluR5 (Homo sapiens, UniProt P41594)
T1 construct: expressed in transfected cells
Assay: Experiment for receptor function of mGluR5 (Ca2+-dependent fluorescence, FLIPR, CHO-K1 cells stably expressing human mGluR5)
Type: cell-based
Conditions: L-glutamic acid 10 μM, Fluo-4 fluorescence
In short: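 Fluo-4-loaded CHO-K1 cells pre-incubated 2 min with test substance, then stimulated with L-glutamic acid (final 10 μM) in HBSS, pH 7.4. FLIPR Ca2+ fluorescence normalized to glutamate alone (100%) and glutamate with 10 μM MPEP (0%); IC50 estimated by logistic fit.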

T1 sequence (P41594 21-1212): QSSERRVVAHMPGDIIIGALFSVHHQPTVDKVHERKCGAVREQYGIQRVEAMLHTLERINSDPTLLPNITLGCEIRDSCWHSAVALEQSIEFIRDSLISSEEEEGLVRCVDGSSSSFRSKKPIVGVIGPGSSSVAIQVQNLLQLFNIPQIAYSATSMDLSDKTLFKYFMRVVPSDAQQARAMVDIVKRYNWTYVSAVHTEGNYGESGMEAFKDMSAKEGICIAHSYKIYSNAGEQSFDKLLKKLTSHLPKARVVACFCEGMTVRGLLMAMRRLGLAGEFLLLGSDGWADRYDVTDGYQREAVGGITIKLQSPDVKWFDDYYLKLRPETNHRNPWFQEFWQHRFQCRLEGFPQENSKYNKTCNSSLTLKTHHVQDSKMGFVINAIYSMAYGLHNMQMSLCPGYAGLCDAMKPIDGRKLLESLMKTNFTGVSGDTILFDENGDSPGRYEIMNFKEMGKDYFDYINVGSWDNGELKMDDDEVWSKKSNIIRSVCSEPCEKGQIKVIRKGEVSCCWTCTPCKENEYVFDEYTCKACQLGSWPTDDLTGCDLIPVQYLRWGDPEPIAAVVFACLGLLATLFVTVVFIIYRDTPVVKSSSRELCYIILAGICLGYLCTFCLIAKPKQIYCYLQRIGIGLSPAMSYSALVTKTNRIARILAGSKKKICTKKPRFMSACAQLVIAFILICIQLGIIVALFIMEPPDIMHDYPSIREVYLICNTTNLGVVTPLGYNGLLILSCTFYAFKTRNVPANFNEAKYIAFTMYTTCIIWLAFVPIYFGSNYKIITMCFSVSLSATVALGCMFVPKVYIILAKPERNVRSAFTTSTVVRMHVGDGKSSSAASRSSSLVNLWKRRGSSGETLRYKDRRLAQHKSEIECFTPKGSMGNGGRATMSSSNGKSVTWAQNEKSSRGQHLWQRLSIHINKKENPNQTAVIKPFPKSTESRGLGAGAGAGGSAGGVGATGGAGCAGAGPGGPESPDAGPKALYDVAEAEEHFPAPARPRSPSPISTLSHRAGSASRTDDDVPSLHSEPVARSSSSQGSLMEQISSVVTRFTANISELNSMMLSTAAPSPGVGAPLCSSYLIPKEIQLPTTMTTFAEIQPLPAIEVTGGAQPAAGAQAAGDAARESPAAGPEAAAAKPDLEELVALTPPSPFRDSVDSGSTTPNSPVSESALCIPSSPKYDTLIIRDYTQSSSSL

`CNc1cncc(-c2cc(OCc3ccccn3)nc3c2CCCC3)n1` [Example 208, N-Methyl-6-[2-(pyridin-2-ylmethoxy)-5,6,7,8-tetrahydroquinolin-4-yl]pyrazin-2-amine hydrochloride] was tested. Which IC50 did it give?
Its IC50 is 125 nM.

With `Fc1ccnc(-c2cc(OCc3ccccn3)nc3c2CCCC3)c1` [Example 223, 4-(4-Fluoropyridin-2-yl)-2-(pyridin-2-ylmethoxy)-5,6,7,8-tetrahydroquinoline] as the compound, how does the IC50 read?
The IC50 was 47.3 nM.

With `c1ccc(COc2cc(-c3cncs3)c3c(n2)CCCC3)nc1` [Example 224, 2-(Pyridin-2-ylmethoxy)-4-(1,3-thiazol-5-yl)-5,6,7,8-tetrahydroquinoline] as the compound, how does the IC50 read?
Its IC50 is 25.6 nM.

`Cc1ncc(-c2cc(OCc3ccccn3)nc3c2CCCC3)s1` [Example 225, 4-(2-Methyl-1,3-thiazol-5-yl)-2-(pyridin-2-ylmethoxy)-5,6,7,8-tetrahydroquinoline hydrochloride] was tested. Which IC50 did it give?
The IC50 was 102 nM.

With `c1ccc(COc2cc(-c3cccnc3)c3c(n2)CCCCC3)nc1` [Example 232, 4-(Pyridin-3-yl)-2-(pyridin-2-ylmethoxy)-6,7,8,9-tetrahydro-5H-cyclohepta[b]pyridine] as the compound, how does the IC50 read?
Its IC50 is 28.9 nM.

Which IC50 does the source give for `c1ccc(COc2cc(-c3cnccn3)c3c(n2)CCCCC3)nc1` [Example 234, 4-(Pyrazin-2-yl)-2-(pyridin-2-ylmethoxy)-6,7,8,9-tetrahydro-5H-cyclohepta[b]pyridine hydrochloride] here?
The IC50 was 41.4 nM.

Which IC50 does the source give for `C=C1CCc2c(-c3cncnc3)cc(OCc3ccccn3)nc21` [Example 237, 7-Methylidene-2-(pyridin-2-ylmethoxy)-4-(pyrimidin-5-yl)-6,7-dihydro-5H-cyclopenta[b]pyridine] here?
Its IC50 is 34.5 nM.

`CCC1CCc2c(-c3cncnc3)cc(OCc3ccccn3)nc21` (stereo not shown) [Example 240, 7-Ethyl-2-(pyridin-2-ylmethoxy)-4-(pyrimidin-5-yl)-6,7-dihydro-5H-cyclopenta[b]pyridine] was tested. Which IC50 did it give?
The IC50 was 24 nM.

`N#Cc1cccc(COc2cc(-c3cccnc3)c3c(n2)CCC3)c1` [Example 245, 3-({[4-(Pyridin-3-yl)-6,7-dihydro-5H-cyclopenta[b]pyridin-2-yl]oxy}methyl)benzonitrile] was tested. Which IC50 did it give?
The IC50 was 39 nM.

For `N#Cc1ccc(COc2cc(-c3cncc(CO)c3)c3c(n2)CCC3)cc1` [Example 247, 4-[({4-[5-(Hydroxymethyl)pyridin-3-yl]-6,7-dihydro-5H-cyclopenta[b]pyridin-2-yl}oxy)methyl]benzonitrile], which IC50 is on record?
Its IC50 is 52 nM.

`OCc1cncc(-c2cc(OCc3ccc(F)cc3)nc3c2CCC3)c1` [Example 248, (5-{2-[(4-Fluorobenzyl)oxy]-6,7-dihydro-5H-cyclopenta[b]pyridin-4-yl}pyridin-3-yl)methanol] was tested. Which IC50 did it give?
Its IC50 is 95 nM.

With `OCc1cncc(-c2cc(OCc3cccc(F)c3)nc3c2CCC3)c1` [Example 249, (5-{2-[(3-Fluorobenzyl)oxy]-6,7-dihydro-5H-cyclopenta[b]pyridin-4-yl}pyridin-3-yl)methanol] as the compound, how does the IC50 read?
Its IC50 is 53 nM.

With `N#Cc1ccc(COc2cc(-c3cncc(F)c3)c3c(n2)CCC3)nc1` [Example 250, 6-({[4-(5-Fluoropyridin-3-yl)-6,7-dihydro-5H-cyclopenta[b]pyridin-2-yl]oxy}methyl)pyridine-3-carbonitrile] as the compound, how does the IC50 read?
The IC50 was 10.6 nM.

For `N#Cc1cccc(COc2cc(-c3ccnc(F)c3)c3c(n2)CCC3)c1` [Example 251, 3-({[4-(2-Fluoropyridin-4-yl)-6,7-dihydro-5H-cyclopenta[b]pyridin-2-yl]oxy}methyl)benzonitrile], which IC50 is on record?
Its IC50 is 94.3 nM.

Which IC50 does the source give for `N#Cc1ccc(COc2cc(-c3ccnc(F)c3)c3c(n2)CCC3)nc1` [Example 252, 6-({[4-(2-Fluoropyridin-4-yl)-6,7-dihydro-5H-cyclopenta[b]pyridin-2-yl]oxy}methyl)pyridine-3-carbonitrile] here?
The IC50 was 13.5 nM.

How did the IC50 turn out when `N#Cc1cccc(COc2cc(-c3cncc(CO)c3)c3c(n2)CCC3)c1` [Example 253, 3-[({4-[5-(Hydroxymethyl)pyridin-3-yl]-6,7-dihydro-5H-cyclopenta[b]pyridin-2-yl}oxy)methyl]benzonitrile] was run?
Its IC50 is 80 nM.

How did the IC50 turn out when `Cc1cc(COc2cc(-c3cncnc3)c3c(n2)CCC3)ccn1` [Example 256, 2-[(2-Methylpyridin-4-yl)methoxy]-4-(pyrimidin-5-yl)-6,7-dihydro-5H-cyclopenta[b]pyridine] was run?
Its IC50 is 62.8 nM.

Which IC50 does the source give for `N#Cc1ccc(COc2cc(-c3cncnc3)c3c(n2)CCC3)cc1` [Example 258, 4-({[4-(Pyrimidin-5-yl)-6,7-dihydro-5H-cyclopenta[b]pyridin-2-yl]oxy}methyl)benzonitrile] here?
The IC50 was 10.1 nM.

`Nc1ncc(-c2cc(OCc3ccccn3)nc3c2CCC3)cn1` [Example 259, 5-[2-(Pyridin-2-ylmethoxy)-6,7-dihydro-5H-cyclopenta[b]pyridin-4-yl]pyrimidin-2-amine hydrochloride] was tested. Which IC50 did it give?
Its IC50 is 27.3 nM.

For `Cc1ncc(-c2cc(OCc3ccc(C#N)cc3)nc3c2CCC3)cn1` [Example 261, 4-({[4-(2-Methylpyrimidin-5-yl)-6,7-dihydro-5H-cyclopenta[b]pyridin-2-yl]oxy}methyl)benzonitrile], which IC50 is on record?
The IC50 was 64 nM.

How did the IC50 turn out when `Cc1cc(COc2cc(-c3cnc(C)nc3)c3c(n2)CCC3)ccn1` [Example 262, 2-[(2-Methylpyridin-4-yl)methoxy]-4-(2-methylpyrimidin-5-yl)-6,7-dihydro-5H-cyclopenta[b]pyridine] was run?
Its IC50 is 82 nM.

`Nc1ncc(-c2cc(OCc3cccc(F)c3)nc3c2CCC3)cn1` [Example 263, 5-{2-[(3-Fluorobenzyl)oxy]-6,7-dihydro-5H-cyclopenta[b]pyridin-4-yl}pyrimidin-2-amine] was tested. Which IC50 did it give?
The IC50 was 111 nM.

For `N#Cc1ccc(COc2cc(-c3cnc(N)nc3)c3c(n2)CCC3)cc1` [Example 264, 4-({[4-(2-Aminopyrimidin-5-yl)-6,7-dihydro-5H-cyclopenta[b]pyridin-2-yl]oxy}methyl)benzonitrile], which IC50 is on record?
Its IC50 is 126 nM.

With `N#Cc1cccc(COc2cc(-c3cnc(N)nc3)c3c(n2)CCC3)c1` [Example 265, 3-({[4-(2-Aminopyrimidin-5-yl)-6,7-dihydro-5H-cyclopenta[b]pyridin-2-yl]oxy}methyl)benzonitrile] as the compound, how does the IC50 read?
The IC50 was 46.8 nM.

For `Cc1ncc(-c2cc(OCc3cccc(F)c3)nc3c2CCC3)cn1` [Example 266, 2-[(3-Fluorobenzyl)oxy]-4-(2-methylpyrimidin-5-yl)-6,7-dihydro-5H-cyclopenta[b]pyridine], which IC50 is on record?
Its IC50 is 71 nM.

With `Cc1ncc(-c2cc(OCc3nc(C#N)co3)nc3c2CCC3)cn1` [Example 267, 2-({[4-(2-Methylpyrimidin-5-yl)-6,7-dihydro-5H-cyclopenta[b]pyridin-2-yl]oxy}methyl)-1,3-oxazole-4-carbonitrile] as the compound, how does the IC50 read?
Its IC50 is 55 nM.

Which IC50 does the source give for `OCc1cncc(-c2cc(OCc3ccc(F)cn3)nc3c2CCC3)n1` [Example 269, (6-{2-[(5-Fluoropyridin-2-yl)methoxy]-6,7-dihydro-5H-cyclopenta[b]pyridin-4-yl}pyrazin-2-yl)methanol] here?
Its IC50 is 67 nM.

Which IC50 does the source give for `N#Cc1cccc(COc2cc(-c3cncc(CO)n3)c3c(n2)CCC3)c1` [Example 270, 3-[({4-[6-(Hydroxymethyl)pyrazin-2-yl]-6,7-dihydro-5H-cyclopenta[b]pyridin-2-yl}oxy)methyl]benzonitrile] here?
The IC50 was 186 nM.

How did the IC50 turn out when `c1ccc(COc2cc(-c3cccnn3)c3c(n2)CCC3)nc1` [Example 271, 4-(Pyridazin-3-yl)-2-(pyridin-2-ylmethoxy)-6,7-dihydro-5H-cyclopenta[b]pyridine] was run?
The IC50 was 92 nM.

With `N#Cc1ccc(COc2cc(-c3cccnn3)c3c(n2)CCC3)cc1` [Example 273, 4-({[4-(Pyridazin-3-yl)-6,7-dihydro-5H-cyclopenta[b]pyridin-2-yl]oxy}methyl)benzonitrile] as the compound, how does the IC50 read?
The IC50 was 62 nM.

For `Cn1nccc1-c1cc(OCc2ccc(C#N)cn2)nc2c1CCC2` [Example 274, 6-({[4-(1-Methyl-1H-pyrazol-5-yl)-6,7-dihydro-5H-cyclopenta[b]pyridin-2-yl]oxy}methyl)pyridine-3-carbo nitrile], which IC50 is on record?
The IC50 was 61 nM.

With `N#Cc1ccc(COc2cc(-c3cccnn3)c3c(n2)CCC3)nc1` [Example 275, 6-({[4-(Pyridazin-3-yl)-6,7-dihydro-5H-cyclopenta[b]pyridin-2-yl]oxy}methyl)pyridine-3-carbonitrile] as the compound, how does the IC50 read?
The IC50 was 82 nM.

`N#Cc1ccc(COc2cc(-c3cncc(CO)c3)c3c(n2)CCCC3)nc1` [Example 276, 6-[({4-[5-(Hydroxymethyl)pyridin-3-yl]-5,6,7,8-tetrahydroquinolin-2-yl}oxy)methyl]pyridine-3-carbonitrile] was tested. Which IC50 did it give?
The IC50 was 28 nM.

Which IC50 does the source give for `N#Cc1ccc(COc2cc(-c3cncnc3)c3c(n2)CCCC3)cc1` [Example 278, 4-({[4-(Pyrimidin-5-yl)-5,6,7,8-tetrahydroquinolin-2-yl]oxy}methyl)benzonitrile] here?
The IC50 was 87 nM.

With `N#Cc1cccc(COc2cc(-c3cncnc3)c3c(n2)CCCC3)c1` [Example 279, 3-({[4-(Pyrimidin-5-yl)-5,6,7,8-tetrahydroquinolin-2-yl]oxy}methyl)benzonitrile] as the compound, how does the IC50 read?
The IC50 was 108 nM.

For `Fc1ccc(COc2cc(-c3cncnc3)c3c(n2)CCCC3)cc1` [Example 280, 2-[(4-Fluorobenzyl)oxy]-4-(pyrimidin-5-yl)-5,6,7,8-tetrahydroquinoline], which IC50 is on record?
The IC50 was 92 nM.

For `Fc1cccc(COc2cc(-c3cncnc3)c3c(n2)CCCC3)c1` [Example 281, 2-[(3-Fluorobenzyl)oxy]-4-(pyrimidin-5-yl)-5,6,7,8-tetrahydroquinoline], which IC50 is on record?
The IC50 was 94 nM.

`N#Cc1cc(COc2cc(-c3cncnc3)c3c(n2)CCCC3)ccn1` [Example 282, 4-({[4-(Pyrimidin-5-yl)-5,6,7,8-tetrahydroquinolin-2-yl]oxy}methyl)pyridine-2-carbonitrile] was tested. Which IC50 did it give?
Its IC50 is 66 nM.

Which IC50 does the source give for `Cc1cc(COc2cc(-c3cnc(C)nc3)c3c(n2)CCCC3)ccn1` [Example 286, 2-[(2-Methylpyridin-4-yl)methoxy]-4-(2-methylpyrimidin-5-yl)-5,6,7,8-tetrahydroquinoline] here?
The IC50 was 95 nM.

Which IC50 does the source give for `Cc1ncc(-c2cc(OCc3ccnc(C#N)c3)nc3c2CCCC3)cn1` [Example 287, 4-({[4-(2-Methylpyrimidin-5-yl)-5,6,7,8-tetrahydroquinolin-2-yl]oxy}methyl)pyridine-2-carbonitrile] here?
The IC50 was 146 nM.
